Laboratory results reported in PubChem BioAssay AID200 (DTP/NCI, 2004).
Where “and” joins values, the source holds several entries; their conditions need not be identical. Identical values can stand only once. Inconclusive results and toxic doses are left out.

Test system: B6C3F1 mice, B16 melanoma ip, median survival T/C
Experiment: NCI In Vivo Anticancer Drug Screen. Data for tumor model B16 Melanoma (intraperitoneal) in B6C3F1 mice
Settings: endpoint: median survival time, higher = longer survival
How it was run: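 Mice bearing transplanted tumor were dosed with compound or vehicle, and survival was recorded. Activity is expressed as the treated-group measurement (T) divided by the vehicle control measurement (C).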

[1] = dose: 6.25 mg/kg/injection, schedule: Q01DX009 (ip), vehicle: saline with Tween-80
[2] = dose: 12.5 mg/kg/injection, schedule: Q01DX009 (ip), vehicle: saline with Tween-80
[3] = dose: 25.0 mg/kg/injection, schedule: Q01DX009 (ip), vehicle: saline with Tween-80
[4] = dose: 50.0 mg/kg/injection, schedule: Q01DX009 (ip), vehicle: saline with Tween-80
[5] = dose: 100.0 mg/kg/injection, schedule: Q01DX009 (ip), vehicle: saline with Tween-80
[6] = dose: 12.5 mg/kg/injection, schedule: Q01DX009 (ip), vehicle: Klucel (hydroxypropylcellulose) (HPC)
[7] = dose: 25.0 mg/kg/injection, schedule: Q01DX009 (ip), vehicle: Klucel (hydroxypropylcellulose) (HPC)
[8] = dose: 50.0 mg/kg/injection, schedule: Q01DX009 (ip), vehicle: Klucel (hydroxypropylcellulose) (HPC)
[9] = dose: 100.0 mg/kg/injection, schedule: Q01DX009 (ip), vehicle: Klucel (hydroxypropylcellulose) (HPC)
[10] = dose: 200.0 mg/kg/injection, schedule: Q01DX009 (ip), vehicle: Klucel (hydroxypropylcellulose) (HPC)
[11] = dose: 200.0 mg/kg/injection, schedule: Q01DX009 (ip), vehicle: saline with Tween-80
[12] = dose: 3.12 mg/kg/injection, schedule: Q01DX009 (ip), vehicle: saline with Tween-80
[13] = dose: 1.56 mg/kg/injection, schedule: Q01DX009 (ip), vehicle: saline with Tween-80
[14] = dose: 12.5 mg/kg/injection, schedule: Q01DX009 (ip), vehicle: saline
[15] = dose: 25.0 mg/kg/injection, schedule: Q01DX009 (ip), vehicle: saline
[16] = dose: 50.0 mg/kg/injection, schedule: Q01DX009 (ip), vehicle: saline

## C/C=C(\C)C(=O)N[C@@H](c1ccccc1)[C@@H](O)C(=O)OC1C[C@@]2(O)[C@@H](OC(=O)c3ccccc3)[C@@H]3[C@]4(OC(C)=O)CO[C@@H]4C[C@H](O)[C@@]3(C)C(=O)[C@H](OC(C)=O)C(=C1C)C2(C)C (stereo not given in full)
dose: 0.5 mg/kg/injection, schedule: Q01DX009 (ip), vehicle: saline + Tween-80 + alcohol
  T/C: 113 % of control
dose: 1.0 mg/kg/injection, schedule: Q01DX009 (ip), vehicle: saline + Tween-80 + alcohol
  T/C: 106 % of control
dose: 4.0 mg/kg/injection, schedule: Q01DX009 (ip), vehicle: saline + Tween-80 + alcohol
  T/C: 172 % of control

## Nc1nc2c(C(=O)N3CCCC3)nnn2c2ccccc12
[1]
  T/C: 118 % of control
[2]
  T/C: 104 % of control
[3]
  T/C: 122 % of control
[4]
  T/C: 107 % of control
[5]
  T/C: 102 % of control

## CNc1nc(NC)nc(NC)n1
[6]
  T/C: 91 % of control
[7]
  T/C: 96 % of control
[8]
  T/C: 100 % of control
[9]
  T/C: 106 % of control

## C=Cc1cnc([N+](=O)[O-])n1C
[6]
  T/C: 99 % of control and 106 % of control
[7]
  T/C: 103 % of control and 107 % of control
[8]
  T/C: 100 % of control and 105 % of control
[9]
  T/C: 109 % of control and 106 % of control
[10]
  T/C: 110 % of control and 100 % of control

## CCC(=O)Sc1ccccc1C(=O)Nc1ccc(Cl)cc1
[3]
  T/C: 104 % of control
[4]
  T/C: 117 % of control
[5]
  T/C: 108 % of control
[11]
  T/C: 115 % of control

## [N-]=[N+]=CC(=O)CCC(=O)C=[N+]=[N-]
dose: 1.56 mg/kg/injection, schedule: Q01DX009 (ip), vehicle: DMSO
  T/C: 124 % of control

## COc1cccc2c1C(=O)c1c(O)c3c(c(O)c1C2=O)C[C@@](O)(C(C)=O)C[C@@H]3OC1CC(N)C(O)C(C)O1 (stereo not given in full)
dose: 0.12 mg/kg/injection, schedule: Q01DX009 (ip), vehicle: water
  T/C: 151 % of control
dose: 0.25 mg/kg/injection, schedule: Q01DX009 (ip), vehicle: water
  T/C: 171 % of control
dose: 0.5 mg/kg/injection, schedule: Q01DX009 (ip), vehicle: water
  T/C: 174 % of control and 186 % of control
dose: 1.0 mg/kg/injection, schedule: Q01DX009 (ip), vehicle: water
  T/C: 154 % of control and 285 % of control
dose: 1.5 mg/kg/injection, schedule: Q01DX001 (ip), vehicle: water
  T/C: 187 % of control
dose: 2.0 mg/kg/injection, schedule: Q01DX009 (ip), vehicle: water
  T/C: 242 % of control and 96 % of control
dose: 3.0 mg/kg/injection, schedule: Q01DX001 (ip), vehicle: water
  T/C: 218 % of control
dose: 6.0 mg/kg/injection, schedule: Q01DX001 (ip), vehicle: water
  T/C: 122 % of control

## C[Si](C)(C)O/C=C1/CCOC1=O
[6]
  T/C: 104 % of control
[7]
  T/C: 93 % of control
[8]
  T/C: 95 % of control
[9]
  T/C: 95 % of control
[10]
  T/C: 106 % of control

## C/C(=N\N=C(/[Se])N1CC2CCC(CC2)C1)c1ccccn1
dose: 0.75 mg/kg/injection, schedule: Q01DX009 (ip), vehicle: Klucel (hydroxypropylcellulose) (HPC)
  T/C: 112 % of control and 92 % of control and 108 % of control
dose: 1.5 mg/kg/injection, schedule: Q01DX009 (ip), vehicle: Klucel (hydroxypropylcellulose) (HPC)
  T/C: 111 % of control and 99 % of control
dose: 3.0 mg/kg/injection, schedule: Q01DX009 (ip), vehicle: Klucel (hydroxypropylcellulose) (HPC)
  T/C: 115 % of control and 100 % of control
dose: 6.0 mg/kg/injection, schedule: Q01DX009 (ip), vehicle: Klucel (hydroxypropylcellulose) (HPC)
  T/C: 120 % of control and 93 % of control and 100 % of control

## CC(Br)C(=O)c1ccc2cc(Br)c3ccccc3c2c1 (stereo not given)
[12]
  T/C: 98 % of control
[1]
  T/C: 100 % of control
[2]
  T/C: 90 % of control

## COc1cc(NC(N)=O)ccc1Nc1c2ccc(N)cc2nc2cc(N)ccc12
dose: 0.5 mg/kg/injection, schedule: Q01DX009 (ip), vehicle: saline
  T/C: 93 % of control
dose: 1.0 mg/kg/injection, schedule: Q01DX009 (ip), vehicle: saline
  T/C: 111 % of control
dose: 2.0 mg/kg/injection, schedule: Q01DX009 (ip), vehicle: saline
  T/C: 101 % of control
dose: 4.0 mg/kg/injection, schedule: Q01DX009 (ip), vehicle: saline
  T/C: 86 % of control
dose: 8.0 mg/kg/injection, schedule: Q01DX009 (ip), vehicle: saline
  T/C: 93 % of control
dose: 16.0 mg/kg/injection, schedule: Q01DX009 (ip), vehicle: saline
  T/C: 98 % of control

## O=C1C2CC=CCC2C(=O)N1SC(Cl)(Cl)Cl (stereo not given)
dose: 0.78 mg/kg/injection, schedule: Q01DX009 (ip), vehicle: saline with Tween-80
  T/C: 90 % of control and 97 % of control
[13]
  T/C: 97 % of control
[12]
  T/C: 89 % of control
[1]
  T/C: 93 % of control
[2]
  T/C: 88 % of control
[3]
  T/C: 89 % of control

## O=c1c(O)c(-c2ccc(O)c(O)c2)oc2cc(O)cc(O)c12
dose: 12.5 mg/kg/injection, schedule: Q01DX009 (ip), vehicle: suspension in saline
  T/C: 103 % of control
dose: 25.0 mg/kg/injection, schedule: Q01DX009 (ip), vehicle: suspension in saline
  T/C: 107 % of control
dose: 50.0 mg/kg/injection, schedule: Q01DX009 (ip), vehicle: suspension in saline
  T/C: 102 % of control
dose: 100.0 mg/kg/injection, schedule: Q01DX009 (ip), vehicle: suspension in saline
  T/C: 109 % of control

## CC(=O)/C=C\c1ccc(Cl)cc1
[14]
  T/C: 107 % of control
[15]
  T/C: 103 % of control
[16]
  T/C: 103 % of control

## COc1ccc(C(=O)C(CN(C)C)CN(C)C)cc1
dose: 1.56 mg/kg/injection, schedule: Q01DX009 (ip), vehicle: saline
  T/C: 92 % of control
dose: 3.12 mg/kg/injection, schedule: Q01DX009 (ip), vehicle: saline
  T/C: 96 % of control
dose: 6.25 mg/kg/injection, schedule: Q01DX009 (ip), vehicle: saline
  T/C: 94 % of control
[14]
  T/C: 97 % of control
[15]
  T/C: 102 % of control

## COC1=C(C)C(=O)C2=C(C1=O)C1C3CC4=C(C(=O)C(OC)=C(C)C4=O)C(CNC(=O)C(C)=O)N3C(C#N)C(C2)N1C (stereo not given)
dose: 0.12 mg/kg/injection, schedule: Q01DX009 (ip), vehicle: Klucel (hydroxypropylcellulose) (HPC)
  T/C: 95 % of control
dose: 0.25 mg/kg/injection, schedule: Q01DX009 (ip), vehicle: Klucel (hydroxypropylcellulose) (HPC)
  T/C: 103 % of control and 106 % of control
dose: 0.5 mg/kg/injection, schedule: Q01DX009 (ip), vehicle: Klucel (hydroxypropylcellulose) (HPC)
  T/C: 99 % of control and 106 % of control
dose: 1.0 mg/kg/injection, schedule: Q01DX009 (ip), vehicle: Klucel (hydroxypropylcellulose) (HPC)
  T/C: 115 % of control and 103 % of control

## CN(C=O)C(C(=O)Nc1cccc2c(OC(=O)C(N(C)C=O)(N(C)C=O)N(C)C=O)c(N=Nc3ccc(S(=O)(=O)Nc4nccs4)cc3)cc(N=Nc3ccc(S(=O)(=O)Nc4nccs4)cc3)c12)(N(C)C=O)N(C)C=O (tested in a mixture with another compound)
[3]
  T/C: 98 % of control
[4]
  T/C: 112 % of control
[5]
  T/C: 121 % of control
[11]
  T/C: 104 % of control
dose: 400.0 mg/kg/injection, schedule: Q01DX009 (ip), vehicle: saline with Tween-80
  T/C: 105 % of control

## CN(C)CSCN(C)C
[13]
  T/C: 97 % of control
dose: 3.13 mg/kg/injection, schedule: Q01DX009 (ip), vehicle: saline with Tween-80
  T/C: 89 % of control
[1]
  T/C: 101 % of control

## CCC1OC(OC)C=CC1=O (stereo not given)
[14]
  T/C: 106 % of control
[15]
  T/C: 108 % of control
[16]
  T/C: 104 % of control

## CCC[CH2][Sn]1([CH2]CCC)[O]C2C(CO)OC(n3ccc(N)nc3=O)C2[O]1 (stereo not given)
dose: 0.05 mg/kg/injection, schedule: Q01DX009 (ip), vehicle: Klucel (hydroxypropylcellulose) (HPC)
  T/C: 94 % of control
dose: 0.1 mg/kg/injection, schedule: Q01DX009 (ip), vehicle: Klucel (hydroxypropylcellulose) (HPC)
  T/C: 90 % of control
dose: 0.2 mg/kg/injection, schedule: Q01DX009 (ip), vehicle: Klucel (hydroxypropylcellulose) (HPC)
  T/C: 101 % of control
dose: 0.4 mg/kg/injection, schedule: Q01DX009 (ip), vehicle: Klucel (hydroxypropylcellulose) (HPC)
  T/C: 95 % of control
